Results taken from patent US20110039721A1, “METHOD FOR PREDICTION ABOUT CARCINOGENICITY OF SUBSTANCE IN RODENT” (Chemicals Evaluation and Research Institute, priority 2007, published 2011).

Columns and labels:
[1] = tested on: mRNA expressed from the genes (A) to (D) in rat liver; test: Behavior of genes (mRNA expression level, oligo-DNA microarray) in rat liver after 28-day oral administration; format: in vivo; conditions: rat, in vivo
How it was run: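 Male F344 SPF rats, 5 weeks old, four per group, received carcinogens, non-carcinogens or solvent vehicle by oral gavage once daily for 28 days. Liver total RNA was then extracted. Changes of ≥1.5-fold or ≤1/1.5 versus vehicle control, in a consistent direction across carcinogens, counted as significant.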

liver = conditions: in vivo; cited from earlier work
rodent = conditions: in vivo; cited from earlier work
[2] = classification of the substance (M+/M−); cited from earlier work

For `Cc1c(C)c2c(c(C)c1O)CC[C@@](C)(CCC[C@H](C)CCC[C@H](C)CCCC(C)C)O2` [TS062, α-Tocopherol (Vitamin E)], which “Behavior of gene caused by administration of chemical substance, Gene No. 154” value [1] is on record?
The value was “−”.

And the “Behavior of gene caused by administration of chemical substance, Gene No. 533” value [1]?
The value was “−”.

What about the “Behavior of gene caused by administration of chemical substance, Gene No. 725” value [1] of the same molecule?
Its value is “−”.

And the “Behavior of gene caused by administration of chemical substance, Gene No. 813” value [1]?
The value was “−”.

What about the “Behavior of gene caused by administration of chemical substance, Gene No. 893” value [1] of the same molecule?
Its value is “−”.

And the “Behavior of gene caused by administration of chemical substance, Gene No. 1119” value [1]?
The value was “−”.

And the “Behavior of gene caused by administration of chemical substance, Gene No. 1131” value [1]?
The value was “−”.

What about the “Behavior of gene caused by administration of chemical substance, Gene No. 1163” value [1] of the same molecule?
Its value is “+”.

And the “Behavior of gene caused by administration of chemical substance, Gene No. 1334” value [1]?
Its value is “−”.

And the “Behavior of gene caused by administration of chemical substance, Gene No. 1494” value [1]?
The value was “−”.

What about the “Behavior of gene caused by administration of chemical substance, Gene No. 1562” value [1] of the same molecule?
The value was “−”.

And the “Behavior of gene caused by administration of chemical substance, Gene No. 1741” value [1]?
Its value is “−”.

What about the “Behavior of gene caused by administration of chemical substance, Gene No. 1993” value [1] of the same molecule?
The value was “−”.

And the “Behavior of gene caused by administration of chemical substance, Gene No. 2026” value [1]?
The value was “−”.

And the “Behavior of gene caused by administration of chemical substance, Gene No. 2045” value [1]?
Its value is “−”.

And the “Behavior of gene caused by administration of chemical substance, Gene No. 2203” value [1]?
Its value is “−”.

And the “Behavior of gene caused by administration of chemical substance, Gene No. 2494” value [1]?
The value was “−”.

What about the “Behavior of gene caused by administration of chemical substance, Gene No. 2546” value [1] of the same molecule?
Its value is “−”.

What about the “Behavior of gene caused by administration of chemical substance, Gene No. 3776” value [1] of the same molecule?
Its value is “−”.

And the “Behavior of gene caused by administration of chemical substance, Gene No. 3929” value [1]?
The value was “−”.

And the “Behavior of gene caused by administration of chemical substance, Gene No. 4095” value [1]?
Its value is “−”.

And the “Behavior of gene caused by administration of chemical substance, Gene No. 4218” value [1]?
Its value is “−”.

And the “Behavior of gene caused by administration of chemical substance, Gene No. 4846” value [1]?
The value was “−”.

And the “Behavior of gene caused by administration of chemical substance, Gene No. 4973” value [1]?
The value was “−”.

And the “Behavior of gene caused by administration of chemical substance, Gene No. 5600” value [1]?
The value was “−”.

And the “Behavior of gene caused by administration of chemical substance, Gene No. 5634” value [1]?
Its value is “−”.

And the “Behavior of gene caused by administration of chemical substance, Gene No. 5726” value [1]?
The value was “−”.

What about the “Behavior of gene caused by administration of chemical substance, Gene No. 5878” value [1] of the same molecule?
Its value is “−”.

What about the “Behavior of gene caused by administration of chemical substance, Gene No. 6026” value [1] of the same molecule?
Its value is “−”.

And the “Behavior of gene caused by administration of chemical substance, Gene No. 6182” value [1]?
Its value is “−”.

What about the “Behavior of gene caused by administration of chemical substance, Gene No. 6303” value [1] of the same molecule?
The value was “−”.

What about the “Behavior of gene caused by administration of chemical substance, Gene No. 6620” value [1] of the same molecule?
The value was “−”.

What about the “Behavior of gene caused by administration of chemical substance, Gene No. 6742” value [1] of the same molecule?
The value was “+”.

What about the Liver carcinogenicity (liver) of the same molecule?
Its Liver carcinogenicity is “Cr−”.

And the Carcinogenicity (rodent)?
Its Carcinogenicity is “C−”.

What about the “Mutagenicity by Ames test” value [2] of the same molecule?
The value was “M−”.
